Source: patent publication US20250017914A1, “6-AZA-QUINOLINE DERIVATIVES AND RELATED USES” (Black Diamond Therapeutics, Inc., priority 2021, published 2025)

Molecular target: T1, BaF3 BRAF-KIAA1549 fusion cells (Homo sapiens, UniProt P15056)
T1 construct: The BRAF-KIAA1549 fusion mutant was subcloned into pMXs-IRES-Blasticidin (RTV-016, Cell Biolabs, San Diego, CA); No tag given; Q9HCM3 (UPF0606 protein KIAA1549)
Test: BaF3 BRAF-KIAA1549 fusion cell proliferation assay (CellTiterGlo, 96 hours)
Format: cell-based
Method: Retroviral Production: The BRAF-KIAA1549 fusion mutant was subcloned into pMXs-IRES-Blasticidin (RTV-016, Cell Biolabs, San Diego, CA). Retrovirus was produced by transfection of HEK 293T cells with the retroviral BRAF mutant expression vector pMXs-IRES-Blasticidin (RTV-016, Cell Biolabs), pCMV-Gag-Pol vector and pCMV-VSV-G-Envelope vector. Briefly, HEK 293T cells were plated in Poly-D-lysine coated 6-well plate (2.5×10^5 cells per well) and incubated overnight. The next day, retroviral plasmids (1 μg of BRAF-KIAA fusion mutant, 0.32 μg of pCMV-Gag-Pol and 0.165 μg pCMV-VSV-G) were mixed in 300 μL of Optimem (31985, Life Technologies). The mixture was incubated at room temperature for 5 minutes and then added to Optimem containing transfection reagent Lipofectamine (11668, Invitrogen) and incubated for 20 minutes. The mixture was then added dropwise to HEK 293T cells. The next day the medium was replaced with fresh culture medium and retrovirus was harvested at 24 hours.
Generation of BRAF-KIAA1549 fusion stable cell line: BaF3 cells were plated in V-bottom 96 well plate (COSTAR #3894) in 80 μL of RPMI/10% FBS and 0.01 ng/mL mouse IL-3, supplemented with 8 μg/mL polybrene (4×10^4 cells/well). Cells were transduced with 20 μL of BRAF-KIAA1549 fusion viral supernatant by centrifuging for 30 minutes at 1000 rpm. Cells were placed in a 37° C. incubator overnight. Next day 100 μL of RPMI/10% FBS and 0.01 ng/mL mouse IL-3 was added. After 24 hours, 100 μL of cells were transferred to a 24 well plate containing 900 μL of RPM/10% FBS and 15 μg/mL Blasticidin. Contents of the 24 well plate were sampled for cell viability via CellTiterGlo (Promega) over a 2-week period.
Assay for cell proliferation: BaF3 BRAF-KIAA1549 fusion cells were resuspended at 1.5×10^5 c/mL in RPMI containing 10% Heat Inactivated FBS, 1% L-glutamine and dispensed in duplicate (7×10^4 c/well) into 384 well plates. To determine the effect of compound on cell proliferation, BaF3 BRAF-KIAA1549 fusion cells were incubated for 96 hours in the presence of vehicle control (DMSO) or compound at varying concentrations. Inhibition of cell growth was determined by luminescent quantification (Envision by Perkin Elmer) of intracellular ATP content using CellTiterGlo (Promega), according to the protocol provided by the manufacturer. To determine the IC50 values, the vehicle-treated cells were normalized as viable cells and analyzed using the CDD Vault, Collaborative Drug Discovery, Burlingame, CA (the Levenberg-Marquardt algorithm; Levenberg, K., […]; Marquardt, D., 1963).
Tables A1 and A2 assign each compound a code for potency in the BaF3 BRAF-KIAA1549 fusion cell proliferation assay: A, B, C, or D. According to the code, A represents an IC50 value <20 nM; B represents an IC50 value ≥20 nM and <100 nM; C represents an IC50 value ≥100 nM and <500 nM; and D represents an IC50 value ≥500 nM.

T1 sequence (P15056 whole entry, change not shown, the tested form may be a part): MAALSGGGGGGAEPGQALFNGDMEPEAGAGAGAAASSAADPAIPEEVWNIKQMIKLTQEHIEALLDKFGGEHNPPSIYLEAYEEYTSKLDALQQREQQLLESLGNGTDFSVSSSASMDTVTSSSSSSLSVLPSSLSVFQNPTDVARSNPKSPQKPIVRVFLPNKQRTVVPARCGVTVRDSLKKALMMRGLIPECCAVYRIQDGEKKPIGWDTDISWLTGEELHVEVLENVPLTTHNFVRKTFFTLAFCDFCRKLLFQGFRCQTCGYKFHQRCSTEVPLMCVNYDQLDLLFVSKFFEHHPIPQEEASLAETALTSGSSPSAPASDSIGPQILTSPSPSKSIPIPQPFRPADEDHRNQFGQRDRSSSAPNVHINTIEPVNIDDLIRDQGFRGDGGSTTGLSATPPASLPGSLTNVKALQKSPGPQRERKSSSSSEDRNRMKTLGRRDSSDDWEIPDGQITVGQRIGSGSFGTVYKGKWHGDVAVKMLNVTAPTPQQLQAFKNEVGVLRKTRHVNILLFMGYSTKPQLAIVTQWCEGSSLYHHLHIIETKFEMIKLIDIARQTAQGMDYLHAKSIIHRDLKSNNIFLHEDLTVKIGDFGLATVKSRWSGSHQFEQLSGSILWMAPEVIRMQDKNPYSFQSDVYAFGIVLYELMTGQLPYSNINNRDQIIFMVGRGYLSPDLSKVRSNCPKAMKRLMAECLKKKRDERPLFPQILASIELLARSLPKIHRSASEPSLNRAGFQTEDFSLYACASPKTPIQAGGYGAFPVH

CNc1cc2ncc(-c3cc(NC(=O)c4cc(C(F)(F)F)ccn4)cnc3C)cc2cn1 [Compound 20, N-(6-Methyl-5-(7-(methylamino)-1,6-naphthyridin-3-yl)pyridin-3-yl)-4-(trifluoromethyl)picolinamide] was tested, and the GI50 (Table A1) was < 20 nM.
CNc1cc2ncc(-c3cc(NC(=O)c4noc5c4C[C@H](C)CC5)ccc3C)cc2cn1 (single isomer, unassigned) [Compound 237] gave a GI50 (Table A2) of 20 to 100 nM.
Compound CNc1cc2c(C#N)cc(-c3cc(NC(=O)c4ccnc(C(F)(F)F)c4)ccc3C)cc2cn1 [Compound 273, N-(3-(5-cyano-3-(methylamino)isoquinolin-7-yl)-4-methylphenyl)-2-(trifluoromethyl)isonicotinamide] has a GI50 (Table A2) of 100 to 500 nM.
With CNc1cc2ncc(-c3cc(NC(=O)c4cc(C5(C#N)CC5)ccn4)ccc3C)cc2cn1 [Compound 16, 4-(1-Cyanocyclopropyl)-N-(4-methyl-3-(7-(methylamino)-1,6-naphthyridin-3-yl)phenyl)picolinamide] the GI50 (Table A1) was < 20 nM.
Work on CNc1cc2ncc(-c3cc(NC(=O)c4cc(C(C)(C)C#N)ccn4)ccc3F)cc2cn1 [Compound 40, 4-(2-cyanopropan-2-yl)-N-(4-fluoro-3-(7-(methylamino)-1,6-naphthyridin-3-yl)phenyl)picolinamide] yielded a GI50 (Table A1) of 20 to 100 nM.
For CNc1cc2ncc(-c3cc(NC(=O)c4cc(C(F)F)ccn4)ccc3C)cc2cn1 [Compound 11, 4-(Difluoromethyl)-N-(4-methyl-3-(7-(methylamino)-1,6-naphthyridin-3-yl)phenyl)picolinamide], the GI50 (Table A1) was 20 to 100 nM.
In the case of CNc1cc2ncc(-c3cc(NC(=O)c4cc(C(C)(C)F)ccn4)ccc3C)cc2cn1 [Compound 13, 4-(2-Fluoropropan-2-yl)-N-(4-methyl-3-(7-(methylamino)-1,6-naphthyridin-3-yl)phenyl)picolinamide], the GI50 (Table A1) is reported as 100 to 500 nM.
Work on CNc1cc2ncc(-c3cc(F)cc(NC(=O)c4cc(C(C)(C)C#N)ccn4)c3)cc2cn1 [Compound 47, 4-(2-Cyanopropan-2-yl)-N-(3-fluoro-5-(7-(methylamino)-1,6-naphthyridin-3-yl)phenyl)picolinamide] yielded a GI50 (Table A1) of 100 to 500 nM.
Work on CNc1cc2ncc(-c3cc(NC(=O)c4n[nH]c5c4CCCC5(C)C)ccc3C)cc2cn1 [Compound 262, 7,7-dimethyl-N-(4-methyl-3-(7-(methylamino)-1,6-naphthyridin-3-yl)phenyl)-4,5,6,7-tetrahydro-1H-indazole-3-carboxamide] yielded a GI50 (Table A2) of 20 to 100 nM.
In the case of CNc1cc2ncc(-c3cc(NC(=O)c4cnn5c4CC(C)CC5)ccc3C)cc2cn1 (stereo not shown) [Compound 265, 5-methyl-N-(4-methyl-3-(7-(methylamino)-1,6-naphthyridin-3-yl)phenyl)-4,5,6,7-tetrahydropyrazolo[1,5-a]pyridine-3-carboxamide], the GI50 (Table A2) is reported as < 20 nM.
For CNc1cc2ncc(-c3cc(NC(=O)c4cccc(C(O)C(F)(F)F)n4)cnc3C)cc2cn1 (stereo not shown) [Compound 210, N-(6-methyl-5-(7-(methylamino)-1,6-naphthyridin-3-yl)pyridin-3-yl)-6-(2,2,2-trifluoro-1-hydroxyethyl)picolinamide], the GI50 (Table A2) was ≥ 500 nM.
Compound CNc1cc2ncc(-c3cc(NC(=O)c4cc(C(N(C)C)C(F)(F)F)ccn4)ccc3C)cc2cn1 (stereo not shown) [Compound 218, 4-(1-(dimethylamino)-2,2,2-trifluoroethyl)-N-(4-methyl-3-(7-(methylamino)-1,6-naphthyridin-3-yl)phenyl)picolinamide] has a GI50 (Table A2) of 20 to 100 nM.
For CNc1cc2ncc(-c3cc(NC(=O)c4noc5c4CC(C(C)(C)C)CC5)cnc3C)cc2cn1 (stereo not shown) [Compound 241, 5-(tert-butyl)-N-(6-methyl-5-(7-(methylamino)-1,6-naphthyridin-3-yl)pyridin-3-yl)-4,5,6,7-tetrahydrobenzo[d]isoxazole-3-carboxamide], the GI50 (Table A2) was 100 to 500 nM.
CNc1cc2ncc(-c3cc(NC(=O)c4cc(C(C)(C)C#N)ccn4)cc(F)c3C)cc2cn1 [Compound 38, 4-(2-Cyanopropan-2-yl)-N-(3-fluoro-4-methyl-5-(7-(methylamino)-1,6-naphthyridin-3-yl)phenyl)picolinamide] showed a GI50 (Table A1) of 20 to 100 nM.
With CNc1cc2ncc(-c3cc(NC(=O)c4n[nH]c5c4CC(C)CC5)ccc3C)cc2cn1 (stereo not shown) [Compound 261, 5-methyl-N-(4-methyl-3-(7-(methylamino)-1,6-naphthyridin-3-yl)phenyl)-4,5,6,7-tetrahydro-1H-indazole-3-carboxamide] the GI50 (Table A2) was < 20 nM.
CNc1cc2ncc(-c3cc(NC(=O)c4cc(C(C)(F)F)ccn4)ccc3C)cc2cn1 [Compound 12, 4-(1,1-Difluoroethyl)-N-(4-methyl-3-(7-(methylamino)-1,6-naphthyridin-3-yl)phenyl)picolinamide] gave a GI50 (Table A1) of 20 to 100 nM.
CNc1cc2ncc(-c3cc(NC(=O)c4cc(C(F)(F)F)ccn4)nnc3C)cc2cn1 [Compound 75, N-(6-methyl-5-(7-(methylamino)-1,6-naphthyridin-3-yl)pyridazin-3-yl)-4-(trifluoromethyl)picolinamide] was tested, and the GI50 (Table A1) was 20 to 100 nM.
In the case of Cc1ccc(NC(=O)c2ccnc(C3(F)CC3)c2)cc1-c1cnc2cc(N)ncc2c1 [Compound 154, N-(3-(7-amino-1,6-naphthyridin-3-yl)-4-methylphenyl)-2-(1-fluorocyclopropyl)isonicotinamide], the GI50 (Table A1) is reported as < 20 nM.
In the case of CNc1cc2ncc(-c3cc(NC(=O)N4CC[C@@H](CC(F)(F)F)C4)ccc3C)cc2cn1 (single isomer, unassigned) [Compound 267], the GI50 (Table A2) is reported as < 20 nM.
Work on CNc1cc2ncc(-c3cc(NC(=O)c4cc(C(O)C(C)C)ccn4)cnc3C)cc2cn1 (stereo not shown) [Compound 202, 4-(1-hydroxy-2-methylpropyl)-N-(6-methyl-5-(7-(methylamino)-1,6-naphthyridin-3-yl)pyridin-3-yl)picolinamide] yielded a GI50 (Table A2) of 20 to 100 nM.
For CNc1cc2ncc(-c3cc(NC(=O)c4cc(C(C)(C)C#N)ccn4)cnn3)cc2cn1 [Compound 49, 4-(2-Cyanopropan-2-yl)-N-(6-(7-(methylamino)-1,6-naphthyridin-3-yl)pyridazin-4-yl)picolinamide], the GI50 (Table A1) was < 20 nM.
With CNc1cc2ncc(-c3cc(NC(=O)c4csc5c4CCC(C)C5)cnc3C)cc2cn1 (stereo not shown) [Compound 235, 6-methyl-N-(6-methyl-5-(7-(methylamino)-1,6-naphthyridin-3-yl)pyridin-3-yl)-4,5,6,7-tetrahydrobenzo[b]thiophene-3-carboxamide] the GI50 (Table A2) was 20 to 100 nM.
CNc1cc2ncc(-c3cc(C(=O)Nc4cc(C(C)(C)C#N)ccn4)ccc3C)cc2cn1 [Compound 53, N-(4-(2-cyanopropan-2-yl)pyridin-2-yl)-4-methyl-3-(7-(methylamino)-1,6-naphthyridin-3-yl)benzamide] showed a GI50 (Table A1) of 20 to 100 nM.
For CNc1cc2ncc(-c3cc(NC(=O)c4ccnc(C(C)C)c4)cnc3C)cc2cn1 [Compound 57, 2-Isopropyl-N-(6-methyl-5-(7-(methylamino)-1,6-naphthyridin-3-yl)pyridin-3-yl)isonicotinamide], the GI50 (Table A1) was < 20 nM.
For CNc1cc2ncc(-c3cc(NC(=O)c4cc(C(O)(O)C(F)(F)F)ccn4)cnc3C)cc2cn1 [Compound 206, N-(6-methyl-5-(7-(methylamino)-1,6-naphthyridin-3-yl)pyridin-3-yl)-4-(2,2,2-trifluoro-1,1-dihydroxyethyl)picolinamide], the GI50 (Table A2) was 20 to 100 nM.
CNc1cc2ncc(-c3cc(NC(=O)c4cc([C@H](O)C(C)(F)F)ccn4)cnc3C)cc2cn1 (single isomer, unassigned) [Compound 249] was tested, and the GI50 (Table A2) was 20 to 100 nM.
With CNc1cc2ncc(-c3cc(NC(=N)c4cc(C(F)(F)F)ccn4)cnc3C)cc2cn1 [Compound 64, N-(6-Methyl-5-(7-(methylamino)-1,6-naphthyridin-3-yl)pyridin-3-yl)-4-(trifluoromethyl)picolinimidamide] the GI50 (Table A1) was ≥ 500 nM.
Work on CNc1cc2ncc(-c3cc(NC(=O)c4cc(C(C)(C)C(N)=O)ccn4)ccc3C)cc2cn1 [Compound 255] yielded a GI50 (Table A2) of 20 to 100 nM.
